Our source for the β-galactosidase activity values is US7037656B2, “Methods and compositions for identifying ligands for nuclear receptors” (priority 2000, dated 2006).

What all share (experiment): Yeast 6x EcRE-lacZ β-galactosidase transactivation assay
Assay [1] concerns Aa ΔA/B EcR + RXRβ + GRIP1. The class given is cell-based, Aedes aegypti; mouse. The settings on record: RH 5992 10 μM, 4 hours, DMSO control 0.231. As to the method: (§1) The human RXR α (Genbank accession number X52773), mouse RXR β (Genbank accession number X66224) or mouse RXR γ (Genebank accession number X66225) subtypes were expressed in yeast-E. coli multicopy 2μ expression plasmids under regulation of CUP1 promoter with the LEU2 selective marker (1).
(§2) Briefly, yeast cells are cultured in 5 mL of YPD liquid medium overnight at 30° C. The cell culture was diluted 1:20 in YPD media and further grown until cell density reached an O.D of 0.6. at OD600. The cells were pelleted by centrifugation and washed with 10 mL of TE+0.1M lithium acetate. Cells are then resuspended in 10 mL TE+0.1M lithium acetate and incubated at 30° C. for 1 hour. Cells are collected and resuspended in 0.5 mL of TE+ 0.1M lithium acetate. […]
(§3) Using the transformation method described above, yeast were co-transformed with a reporter gene as shown in FIG. 2 and the expression vector encoding the full-length Aedes aegypti ecdysone receptor, Aa EcR (FIG. 7A) in the presence or absence of the Aa EcR heterodimer partner, Aa USP (a or b form, FIGS. 8A and 8B respectively). […] As the N-terminal portion of the AaEcR receptor is reported to play a role in ligand independent transactivation, an expression vector containing an N-terminal deletion in the Aa EcR was constructed (see FIG. 7B) and assessed in the β-galactosidase assays described above. […]

Assay [2] addresses T1, Aa ΔA/B EcR + RXRγ + GRIP1 (Aedes aegypti, UniProt P49880).
T1 construct: ubiquitin (human, 76 aa) (N, cleaved yes); expressed in transfected cells
The class given is cell-based, Aedes aegypti; mouse. The settings on record: RH 5992 10 μM, 4 hours, DMSO control 0.496. As to the method:
as §1, §2, §3

The target in assay [3] is T2, Cf ΔA/B EcR + RXR α + GRIP1 (Choristoneura fumiferana, UniProt O77240).
T2 construct: human ubiquitin (76 aa) (N, cleaved yes); expressed in transfected cells; host or cells: yeast (Saccharomyces cerevisiae)
The class given is cell-based, Choristoneura fumiferana; human. Conditions: RH 5992 10 μM, 4 hours, DMSO control 0.270. As to the method: as §1
Briefly, yeast cells are cultured in 5 mL of YPD liquid medium overnight at 30° C. The cell culture was diluted 1:20 in YPD media and further grown until cell density reached an O.D of 0.6. at OD600. The cells were pelleted by centrifugation and washed with 10 mL of TE+0.1M lithium acetate. Cells are then resuspended in 10 mL TE+0.1M lithium acetate and incubated at 30° C. for 1 hour. Cells are collected and resuspended in 0.5 mL of TE+ 0.1M lithium acetate. Aliquots of cells (50 μL), were incubated for 15 minutes at 30° C. with 1–2 μg plasmid DNA in the presence of 5 μg of denatured salmon sperm DNA as DNA carrier. In the case of co-transformation, the indicated plasmids were added simultaneously. 50% polyethyleneglycol of molecular weight 4000, diluted in TE, was added to a final concentration of 35%. DMSO was added to the transformation solution simultaneously to a final concentration 3%. The samples were mixed well by vortexing and incubated for an additional 30 minutes at 30° C. The cell mixture is then heated for 15 minutes at 42° C. […]

Structures are written as SMILES.

T1 sequence (P49880 with tags, fused parts or gaps): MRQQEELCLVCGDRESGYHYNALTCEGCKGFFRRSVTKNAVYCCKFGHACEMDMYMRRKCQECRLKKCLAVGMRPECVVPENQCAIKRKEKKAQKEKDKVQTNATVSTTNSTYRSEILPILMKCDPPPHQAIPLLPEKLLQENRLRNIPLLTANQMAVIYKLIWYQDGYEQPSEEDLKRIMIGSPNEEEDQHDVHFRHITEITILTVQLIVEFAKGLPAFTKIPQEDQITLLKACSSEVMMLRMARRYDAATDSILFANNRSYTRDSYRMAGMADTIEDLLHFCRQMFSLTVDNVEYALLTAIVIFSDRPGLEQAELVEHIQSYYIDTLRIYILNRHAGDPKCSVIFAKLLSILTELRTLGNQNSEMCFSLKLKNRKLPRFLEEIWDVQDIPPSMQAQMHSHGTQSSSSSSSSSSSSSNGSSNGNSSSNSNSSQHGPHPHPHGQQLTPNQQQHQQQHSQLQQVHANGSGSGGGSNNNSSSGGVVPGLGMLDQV
T1 sequence (P28705 whole entry partner): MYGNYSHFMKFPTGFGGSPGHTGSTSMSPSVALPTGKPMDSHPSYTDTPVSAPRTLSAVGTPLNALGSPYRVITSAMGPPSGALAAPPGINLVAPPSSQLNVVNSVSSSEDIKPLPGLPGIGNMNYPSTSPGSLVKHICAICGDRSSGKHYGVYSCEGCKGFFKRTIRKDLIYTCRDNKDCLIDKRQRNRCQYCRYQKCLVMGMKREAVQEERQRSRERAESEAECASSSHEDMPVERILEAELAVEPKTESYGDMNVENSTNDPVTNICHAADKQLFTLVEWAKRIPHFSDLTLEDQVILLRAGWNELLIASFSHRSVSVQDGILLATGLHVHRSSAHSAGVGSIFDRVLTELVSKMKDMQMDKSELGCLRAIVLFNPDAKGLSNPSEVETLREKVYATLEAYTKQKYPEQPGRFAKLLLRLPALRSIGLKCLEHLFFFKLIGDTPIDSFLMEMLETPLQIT
T2 sequence (O77240 entry or part of it, stated change not applied): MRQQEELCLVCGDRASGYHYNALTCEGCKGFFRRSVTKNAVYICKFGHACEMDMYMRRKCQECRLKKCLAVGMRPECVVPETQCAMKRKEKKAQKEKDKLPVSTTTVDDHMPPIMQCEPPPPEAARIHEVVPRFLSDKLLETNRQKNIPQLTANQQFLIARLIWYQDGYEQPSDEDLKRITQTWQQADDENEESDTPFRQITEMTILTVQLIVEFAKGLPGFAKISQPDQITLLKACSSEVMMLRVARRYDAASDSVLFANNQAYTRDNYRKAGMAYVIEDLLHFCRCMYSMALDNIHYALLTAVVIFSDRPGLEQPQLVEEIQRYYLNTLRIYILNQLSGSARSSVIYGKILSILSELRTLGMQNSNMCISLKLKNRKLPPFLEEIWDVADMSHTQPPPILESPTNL
T2 sequence (P19793 whole entry partner): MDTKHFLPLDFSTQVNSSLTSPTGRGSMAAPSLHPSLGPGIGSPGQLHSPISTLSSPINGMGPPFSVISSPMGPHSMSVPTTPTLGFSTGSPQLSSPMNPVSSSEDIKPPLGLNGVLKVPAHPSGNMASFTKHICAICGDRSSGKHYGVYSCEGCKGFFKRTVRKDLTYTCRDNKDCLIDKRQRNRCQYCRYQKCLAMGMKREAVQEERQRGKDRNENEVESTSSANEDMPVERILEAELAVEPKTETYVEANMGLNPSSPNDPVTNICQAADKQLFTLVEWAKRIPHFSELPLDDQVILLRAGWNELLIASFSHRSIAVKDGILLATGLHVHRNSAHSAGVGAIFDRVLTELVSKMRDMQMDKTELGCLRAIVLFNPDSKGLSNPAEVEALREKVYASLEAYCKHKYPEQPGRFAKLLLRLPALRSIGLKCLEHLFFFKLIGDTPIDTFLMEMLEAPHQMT

With `CCc1ccc(C(=O)NN(C(=O)c2cc(C)cc(C)c2)C(C)(C)C)cc1` [RH 5992, tebufenozide], the β-galactosidase activity in assay [1] came to 1.983; in assay [2] it was 2.666; in assay [3] it was 2.063.
